Reference: patent US11427869B2, “T cell balance gene expression, compositions of matters and methods of use thereof” (THE BROAD INSTITUTE, INC., priority 2015, dated 2022)

Tested on: CD5L−/− Th17 cells
Assay: Nanostring nCounter Th17 codeset (312 genes), PUFA- or control-treated CD5L−/− Th17 cells
Format: cell-based, mouse
Text: Applicants studied the contribution of lipid saturation to Th17 cell pathogenicity. […] Applicants analyzed the expression of a 312 gene signature of Th17 cell differentiation and function (Yosef et al., 2013) in SFA- or control-treated WT Th17 cells and in PUFA- or control-treated CD5L−/− Th17 cells differentiated with TGF-81+IL-6.
T cell differentiation culture. Naïve CD4+CD44−CD62L+CD25− T cells or Effector memory CD4+CD44+CD62L− were sorted using BD FACSAria sorter and activated with plate-bound anti-CD3 and anti-CD28 antibodies (both at 2 μg/ml) in the presence of cytokines at a concentration of 2.5×10^5 cells/ml. For Th17 differentiation: 2 ng/ml of rhTGFβ1, 2 ng/ml of rhTGFβ3, 25 ng/ml rmIL-6, 20 ng/ml rmIL-18 (all from Miltenyi Biotec) and 20 ng/ml rmIL-23 (R & D systems) were used at various combinations as specified in figures. For Th1 differentiation, 20 ng/ml rmIL-12 (R & D systems); for Th2 differentiation 20 ng/ml rmIL-4 (Miltenyi Biotec); for iTreg differentiation, 2.5 ng/ml of rhTGFβ1 were used (Miltenyi Biotec). For differentiation experiments, cells were harvested at 48 hours. For restimulation experiments, cells were differentiated for 48 hours and resuspended in fresh media with no additional cytokines for 48-72 hours. Cells were re-stimulated with PMA/ionomycin for four hours before analysis for cytokines by intracellular cytokine staining. For experiments with exogenous fatty acid, fatty acids were purchased and resuspended first with serum-free media containing BSA prior being added to culture.
Nanostring nCounter. Nanostring nCounter platform (NanoString Technologies) is used to measure the number of RNA transcripts in RNA samples (FIG. 16I, FIG. 18D). A codeset containing 312 signature genes of Th17 cell differentiation and function as well as 4 additional house-keeping genes were custom-made (Yosef et al., 2013) and used in these experiments. Experimental procedures as detailed by the manufacturer is strictly followed.

CCCCC/C=C\C/C=C\C/C=C\C/C=C\CCCC(=O)O [PUFA, arachidonic acid]
Irf4 expression (Nanostring), normalized to WT (CD5LKO Th17 cells + PUFA): 0.65 | Irf7 expression (Nanostring), normalized to WT (CD5LKO Th17 cells + PUFA): 1.17 | Irf8 expression (Nanostring), normalized to WT (CD5LKO Th17 cells + PUFA): 1.29 | Itga3 expression (Nanostring), normalized to WT (CD5LKO Th17 cells + PUFA): 0.76 | Jak3 expression (Nanostring), normalized to WT (CD5LKO Th17 cells + PUFA): 1.27 | Jun expression (Nanostring), normalized to WT (CD5LKO Th17 cells + PUFA): 0.64 | Kat2b expression (Nanostring), normalized to WT (CD5LKO Th17 cells + PUFA): 1.22 | Klf9 expression (Nanostring), normalized to WT (CD5LKO Th17 cells + PUFA): 0.75 | Klf10 expression (Nanostring), normalized to WT (CD5LKO Th17 cells + PUFA): 1.30 | Klrd1 expression (Nanostring), normalized to WT (CD5LKO Th17 cells + PUFA): 0.63 | Lad1 expression (Nanostring), normalized to WT (CD5LKO Th17 cells + PUFA): 1.18 | Lgals3bp expression (Nanostring), normalized to WT (CD5LKO Th17 cells + PUFA): 1.34 | Litaf expression (Nanostring), normalized to WT (CD5LKO Th17 cells + PUFA): 0.61 | Lpxn expression (Nanostring), normalized to WT (CD5LKO Th17 cells + PUFA): 1.39 | Maf expression (Nanostring), normalized to WT (CD5LKO Th17 cells + PUFA): 0.84 | Maff expression (Nanostring), normalized to WT (CD5LKO Th17 cells + PUFA): 0.77 | Map3k5 expression (Nanostring), normalized to WT (CD5LKO Th17 cells + PUFA): 1.49 | Mbnl3 expression (Nanostring), normalized to WT (CD5LKO Th17 cells + PUFA): 1.30 | Mina expression (Nanostring), normalized to WT (CD5LKO Th17 cells + PUFA): 1.08 | Mt1 expression (Nanostring), normalized to WT (CD5LKO Th17 cells + PUFA): 0.79 | Mt2 expression (Nanostring), normalized to WT (CD5LKO Th17 cells + PUFA): 0.84 | Nfkbie expression (Nanostring), normalized to WT (CD5LKO Th17 cells + PUFA): 1.52 | Nkg7 expression (Nanostring), normalized to WT (CD5LKO Th17 cells + PUFA): 1.40 | Notch2 expression (Nanostring), normalized to WT (CD5LKO Th17 cells + PUFA): 1.20 | Oas2 expression (Nanostring), normalized to WT (CD5LKO Th17 cells + PUFA): 0.82 | Peli2 expression (Nanostring), normalized to WT (CD5LKO Th17 cells + PUFA): 0.83 | Plac8 expression (Nanostring), normalized to WT (CD5LKO Th17 cells + PUFA): 0.85 | Plagl1 expression (Nanostring), normalized to WT (CD5LKO Th17 cells + PUFA): 1.07 | Pmepa1 expression (Nanostring), normalized to WT (CD5LKO Th17 cells + PUFA): 1.19 | Pou2af1 expression (Nanostring), normalized to WT (CD5LKO Th17 cells + PUFA): 0.86 | Prkd3 expression (Nanostring), normalized to WT (CD5LKO Th17 cells + PUFA): 1.51 | Pstpip1 expression (Nanostring), normalized to WT (CD5LKO Th17 cells + PUFA): 1.24 | Rab33a expression (Nanostring), normalized to WT (CD5LKO Th17 cells + PUFA): 1.50 | Rasgrp1 expression (Nanostring), normalized to WT (CD5LKO Th17 cells + PUFA): 1.21 | Rel expression (Nanostring), normalized to WT (CD5LKO Th17 cells + PUFA): 0.73 | Rela expression (Nanostring), normalized to WT (CD5LKO Th17 cells + PUFA): 0.96 | Rfk expression (Nanostring), normalized to WT (CD5LKO Th17 cells + PUFA): 1.07 | Rorc expression (Nanostring), normalized to WT (CD5LKO Th17 cells + PUFA): 1.52 | Sap30 expression (Nanostring), normalized to WT (CD5LKO Th17 cells + PUFA): 0.81 | Sema7a expression (Nanostring), normalized to WT (CD5LKO Th17 cells + PUFA): 1.04 | Serpinb1a expression (Nanostring), normalized to WT (CD5LKO Th17 cells + PUFA): 0.77 | Ski expression (Nanostring), normalized to WT (CD5LKO Th17 cells + PUFA): 0.86 | Slc6a6 expression (Nanostring), normalized to WT (CD5LKO Th17 cells + PUFA): 1.03 | Smad3 expression (Nanostring), normalized to WT (CD5LKO Th17 cells + PUFA): 1.03 | Socs3 expression (Nanostring), normalized to WT (CD5LKO Th17 cells + PUFA): 1.38 | Spp1 expression (Nanostring), normalized to WT (CD5LKO Th17 cells + PUFA): 0.66 | Spry1 expression (Nanostring), normalized to WT (CD5LKO Th17 cells + PUFA): 1.02 | Stat4 expression (Nanostring), normalized to WT (CD5LKO Th17 cells + PUFA): 1.21 | Stat5b expression (Nanostring), normalized to WT (CD5LKO Th17 cells + PUFA): 1.19 | Stat6 expression (Nanostring), normalized to WT (CD5LKO Th17 cells + PUFA): 1.13 | Sult2b1 expression (Nanostring), normalized to WT (CD5LKO Th17 cells + PUFA): 0.61 | Tal2 expression (Nanostring), normalized to WT (CD5LKO Th17 cells + PUFA): 1.52 | Tcf4 expression (Nanostring), normalized to WT (CD5LKO Th17 cells + PUFA): 1.29 | Tgfb1 expression (Nanostring), normalized to WT (CD5LKO Th17 cells + PUFA): 0.68 | Tgfb3 expression (Nanostring), normalized to WT (CD5LKO Th17 cells + PUFA): 1.67 | Tgfbr3 expression (Nanostring), normalized to WT (CD5LKO Th17 cells + PUFA): 0.94 | Tgm2 expression (Nanostring), normalized to WT (CD5LKO Th17 cells + PUFA): 1.51 | Tmem229b expression (Nanostring), normalized to WT (CD5LKO Th17 cells + PUFA): 1.52 | Tnfrsf4 expression (Nanostring), normalized to WT (CD5LKO Th17 cells + PUFA): 1.05 | Tnip2 expression (Nanostring), normalized to WT (CD5LKO Th17 cells + PUFA): 0.78 | Trat1 expression (Nanostring), normalized to WT (CD5LKO Th17 cells + PUFA): 0.85 | Trim25 expression (Nanostring), normalized to WT (CD5LKO Th17 cells + PUFA): 1.17 | Trps1 expression (Nanostring), normalized to WT (CD5LKO Th17 cells + PUFA): 1.44 | Tsc22d3 expression (Nanostring), normalized to WT (CD5LKO Th17 cells + PUFA): 0.66 | Ubiad1 expression (Nanostring), normalized to WT (CD5LKO Th17 cells + PUFA): 1.16 | Vav3 expression (Nanostring), normalized to WT (CD5LKO Th17 cells + PUFA): 1.20 | Xrcc5 expression (Nanostring), normalized to WT (CD5LKO Th17 cells + PUFA): 1.27 | nrp1 expression (Nanostring), normalized to WT (CD5LKO Th17 cells + PUFA): 0.90 | pou2f1 expression (Nanostring), normalized to WT (CD5LKO Th17 cells + PUFA): 0.66 | transcriptional signature (312 gene Th17 codeset, genes >1.5 fold) (PUFA-treated CD5L−/− Th17 cells, TGF-β1+IL-6): resemble WT non-pathogenic Th17 cells
